Results taken from US20120003298A1, “METHODS FOR INDUCING AN IMMUNE RESPONSE” (priority 2010, published 2012).
Read-outs that look alike come from different tables or passages of the source.

Tests used:
[1] = Solubility, method of the European Pharmacopoeia 6.0; format: physicochemical
Protocol: The method reported in the European Pharmacopoeia 6.0 was used.
Batch CH730/16/8g was tested according to the method described in E. Ph: DMSO was added in 0.1 mL portions to 103.7 mg of product and the suspension was shaken with a Vortex instrument for 3 min after each addition.
The batches CH730/16/8c, CH730/16/8g and CH730/23/8e were then tested stirring each suspension for a longer time; 100 mg of each batch dissolved completely in 0.2 mL of DMSO after stirring for 30 minutes.

[2] = test system: mouse macrophage cell line Raw264.7; test: IL-6 and TNF-alpha secretion in Raw264.7 cells (Model 1), ELISA; format: cell-based; settings: Mus musculus, RAW264.7, Raw 264.7, 24 hours, 7 doses
PBMCs = test: IL-6 and TNF-alpha secretion in PBMC model (Model 2), ELISA; format: cell-based, human; settings: Homo sapiens, PBMC
[3] = Metabolic profiling in rabbit plasma, LC/MS/MS; format: in vitro ADME
Protocol: (§1) Before the analysis of the incubated samples, compound A was infused manually to understand parent fragmentation. Infusion was performed by diluting a 50 mM solution in DMSO to 1 μM with ACN/MeOH 1/1. Sample solution was infused into the ion trap source at a flow rate of 4 μl/min.
(§2) Incubated samples were analyzed on a HPLC (Waters) interfaced with an Ion Trap HCT ultra (Bruker Daltonics).
(§3) Assignment of the structures was done by comparison of the MS/MS analysis of the spectra with the parent spectrum.
(§4) Metabolic profiling was studied in rabbit and human plasma. In both matrixes the parent compound (50 uM starting concentration) was totally metabolized at the last time point. Metabolites were detected in Full scan and peaks were assigned by MH+ and MS/MS spectra.

[4] = Metabolic profiling in human plasma, LC/MS/MS; format: in vitro ADME
Protocol: as §1, §2, §3, §4

human whole blood = test: Cytokine secretion in human whole blood assay, ELISA; format: cell-based; settings: Homo sapiens
Protocol: Before drawing the blood, the compounds were added to 96 well round bottom plates in a 10× diluted sample at 20 ul. The compounds were diluted in RPMI media without serum but with antibiotics. Antibiotics were added at a 10× concentration. After drawing the blood, the whole blood sample was gently mixed to obtain a homogeneous sample, and 180 ul was added to each well.
All compounds were setup in concentrations at 0-0.01-0.03-0.1-0.5-2.0-10.0 micromolar as the final concentration. Vehicle control was DMSO control, where we used the highest concentration used for the compounds. After addition of blood, all plates were gently agitated at 37° C. and 5% CO2 until harvest.
For the 6 hours time point, the plate was centrifuged 500×g. Supernatant (SN) was transferred to a tube and centrifuged at 10.000×g for 10 min to get rid of cells and protein aggregates. The clarified supernatant was frozen at −80° C. until analysis.
The SN was removed to another tube and centrifuged at 10.000×g for 10 min. to get rid of aggregates etc. The clarified supernatant was frozen at −80° C. until analysis.
Concentrations of cytokines were determined by ELISA from R&D Systems. The results were analyzed in Graph Pad Prism in order to prepare dose-response
curves, and for determination of EC50 values. FACS analysis was made by using Becton-Dickinson FACSDiva software and subsequently illustrated in Graph Pad Prism.

[5] = test system: recombinant antigens from Plasmodium falciparum and Mycobacterium ulcerans; test: Pilot immunization study with adjuvanted recombinant protein antigens; format: in vivo, mouse; settings: subcutaneous, 10 nMol
Protocol: A pilot immunization study was conducted using Compound A and SC12 adjuvanted protein antigens. The immunization experiments were performed with two recombinant proteins expressed in E. coli. One antigen was derived from the malaria parasite Plasmodium falciparum and the other one from Mycobacterium ulcerans, which cause the ulcerative skin disease Buruli ulcer.

RAW.264 cells = test: Intracellular uptake in RAW.264 cells, LC-MS; format: in vitro ADME; settings: 10 microM
Protocol: 5×10^6 RAW.264 cells were adhered overnight in 10 cm tissue culture dishes. […] […] Supernatant (2 ml) and cells (pellets) were collected by trypsinization and frozen at […] for subsequent analysis by LC-MS.

[6] = Stability on storage by HPLC (solid or chloroform solution; temperature, light)
Protocol: At this point, a stability study was conducted on batch CH730/16/8g.
The samples were analyzed at t=0 and after 20 days.

SMILES: CCCCCCCC/C=C\CCCCCCCC(=O)OCC(COP(=O)(O)OCCNC(=O)c1ccc(Cn2c(=O)[nH]c3c(N)nc(OCCOC)nc32)cc1)OC(=O)CCCCCCC/C=C\CCCCCCCC (centres unmarked) [Compound A, 2-(4-((6-amino-2-(2-methoxyethoxy)-8-oxo-7H-purin-9(8H)-yl)methyl)benzamido)ethyl 2,3-bis(oleoyloxy)propyl phosphate]
- solubility in DMSO [1]: soluble
- solubility ([1]; chloroform, organic solvent or mixture, thermodynamic from solid): 100 mg/mL
- solubility at 3 min ([1]; organic solvent or mixture, thermodynamic from solid, batch Ch730/16/8g, DMSO added in 0.1 mL portions, Vortex 3 min after each addition): 259 mg/mL
- solubility at 30 min ([1]; organic solvent or mixture, thermodynamic from solid, three batches, 100 mg in 0.2 mL of DMSO after stirring for 30 minutes): 500 mg/mL
- EC50 ([2]; read-out: EC 50 IL 6): 6 nM
- EC50 ([2]; read-out: EC 50 TNF-alpha): 9 nM
- EC50 (PBMCs; 24 hours, read-out: TNF-alpha secretion, Donor 1 MC50): 644 nM
- EC50 (PBMCs; 24 hours, read-out: TNF-alpha secretion, Donor 2 MC50): 665 nM
- EC50 (PBMCs; 24 hours, read-out: TNF-alpha secretion, Donor 3 MC50): 639 nM
- EC50 (PBMCs; average of three donors, read-out: IL-6 secretion, Average EC50): 485 nM
- EC50 (PBMCs; average of three donors, read-out: TNF-alpha secretion, Average EC50): 650 nM
- metabolism in plasma [3]: highly metabolized by esterases
- metabolism in plasma [4]: highly metabolized by esterases
- EC50 (human whole blood; 6 h, read-out: EC50-IFN-alpha, 6 h Incubation, Donor 1, whole blood): 1170 nM
- EC50 (human whole blood; 6 h, read-out: EC50-IFN-alpha, 6 h Incubation, Donor 2, whole blood): 1840 nM
- EC50 (human whole blood; 6 h, read-out: EC50-IFN-alpha, 6 h Incubation, Donor 3, whole blood): 1940 nM
- EC50 (human whole blood; 6 h, read-out: EC50-IL-6, 6 h Incubation, Donor 1, whole blood): 940 nM
- EC50 (human whole blood; 6 h, read-out: EC50-IL-6, 6 h Incubation, Donor 2, whole blood): 630 nM
- EC50 (human whole blood; 6 h, read-out: EC50-IL-6, 6 h Incubation, Donor 3, whole blood): 520 nM
- EC50 (human whole blood; 6 h, read-out: EC50-IL-12, 6 h Incubation, Donor 1, whole blood, IL-12p40): 2310 nM
- EC50 (human whole blood; 6 h, read-out: EC50-IL-12, 6 h Incubation, Donor 2, whole blood, IL-12p40): 2090 nM
- EC50 (human whole blood; 6 h, read-out: EC50-IL-12, 6 h Incubation, Donor 3, whole blood, IL-12p40): 3430 nM
- EC50 (human whole blood; 24 h, read-out: EC50-IFN-alpha, 24 h Incubation, Donor 1): 240 nM
- EC50 (human whole blood; 24 h, read-out: EC50-IFN-alpha, 24 h Incubation, Donor 2): 470 nM
- EC50 (human whole blood; 24 h, read-out: EC50-IFN-alpha, 24 h Incubation, Donor 3): 350 nM
- EC50 (human whole blood; 24 h, read-out: EC50-IL-6, 24 h Incubation, Donor 1): 520 nM
- EC50 (human whole blood; 24 h, read-out: EC50-IL-6, 24 h Incubation, Donor 2): 320 nM
- EC50 (human whole blood; 24 h, read-out: EC50-IL-6, 24 h Incubation, Donor 3): 290 nM
- EC50 (human whole blood; 24 h, read-out: EC50-IL-10, 24 h Incubation, Donor 1): 1290 nM
- EC50 (human whole blood; 24 h, read-out: EC50-IL-10, 24 h Incubation, Donor 2): 860 nM
- EC50 (human whole blood; 24 h, read-out: EC50-IL-10, 24 h Incubation, Donor 3): 2280 nM
- EC50 (human whole blood; 24 h, whole blood, read-out: EC50-IL-12p40, 24 h Incubation, Donor 1): 2870 nM
- EC50 (human whole blood; 24 h, whole blood, read-out: EC50-IL-12p40, 24 h Incubation, Donor 2): 2740 nM
- EC50 (human whole blood; 24 h, whole blood, read-out: EC50-IL-12p40, 24 h Incubation, Donor 3): 4030 nM
- local side effects [5]: No local side effects
- Intracellular Concentration % of total (RAW.264 cells; Incubation 1 hours): 5.50 % of total
- Intracellular Concentration % of total (RAW.264 cells; Incubation 6 hours): 4.27 % of total
- Intracellular Concentration % of total (RAW.264 cells; Incubation 16 hours): 1.53 % of total
- degradation ([6]; T>25° C. and in the presence of light): rapid degradation
- degradation of solid samples ([6]; batch CH730/16/8g, solid): almost completely degraded after few days
- stability ([6]; room temperature and/or in the presence of light): not a stable compound
